These results are taken from article PMC10298657, “QbD-Optimized, Phospholipid-Based Elastic Nanovesicles for the Effective Delivery of 6-Gingerol: A Promising Topical Option for Pain-Related Disorders” (International Journal of Molecular Sciences, 2023).

The nature of the assay: ABTS radical scavenging activity. The note with it: ABTS assay. The class given is biochemical. How it is done: The ability of the nanocarriers to scavenge the free radical ABTS was used to measure their antioxidant activity. To create an ABTS free radical, a stock solution of 7 mM ABTS was combined with 2.45 mM potassium persulfate and agitated in the dark for 12 h. […] Then, a standard solution (ascorbic acid) was mixed with the ABTS+ solution and incubated for 10 min in a 37 °C water bath. After that, various concentrations (10–100 µg/mL) of all samples were prepared in ethanol, 3 mL of the solution and 1 mL of the samples were combined, and the absorbance was measured at 734 nm using a UV spectrophotometer after 6 min [66]. Finally, the following equation was used to compute ABTS scavenging activity: Scavenging (%)=(Absorbance blank−Absorbance sample)/Absorbance blank×100

For the compound `O=C1O[C@H]([C@@H](O)CO)C(O)=C1O` [standard solution, ascorbic acid], the “Antioxidant activity (ABTS scavenging)” value is listed as 91.14 ± 0.24%.

Regarding `CCCCC[C@H](O)CC(=O)CCc1ccc(O)c(OC)c1` [Formulation 6-G, 6-gingerol], the “Antioxidant activity (ABTS scavenging)” value was determined as 67.01 ± 1.11%.
